Test results from US20260078108A1, “SOLID FORMS OF A ROCK INHIBITOR” (REDX PHARMA PLC, priority 2022, published 2026).
Converted amounts (≈) assume the structure as drawn. Where a name gives a salt, the structure may show the parent alone.

Columns and labels:
[1] = Solubility testing in water, SGF, FaSSIF, FeSSIF at 37° C.; format: physicochemical; settings: for Solubility / Solubility (mg/mL): 37° C.
Method: About 15 mg of sample was weighed into each sample vial and then 3.0 mL of water, simulated gastric fluid (SGF), Fasted State Simulated Intestinal Fluid (FaSSIF) or Fed State Simulated Intestinal Fluid (FeSSIF) media was added. Samples were prepared in triplicate for each media. The suspensions were kept shaking at 37° C. for up to 24 h. At 0.5, 2 and 24 h, suspensions were filtered and the filtrate was analyzed by HPLC.

[2] = 7-day stability testing of solid forms (HPLC purity, XRPD); format: physicochemical
Method: About 10 mg of freebase Form I, HCl salt Form II, Succinate Form I and received HCl salt Form I were placed at 60° C./capped and 40° C./75% RH (open), respectively. Samples were prepared in duplicate for each condition. At day 0 and day 7, the samples were analyzed by HPLC and XRPD to check the purity and crystal form, respectively.

[3] = system: animal models of inflammatory bowel disease; settings: multiple animal models of inflammatory bowel disease; preclinical data, background; cited from earlier work
[4] = FaSSIF (pH of media 6.5), 0.5 h
[5] = FeSSIF (pH of media 5.0), 0.5 h
[6] = pH of sample in FaSSIF (pH of media 6.5), 0.5 h
[7] = pH of sample in FaSSIF (pH of media 6.5), 2 h
[8] = pH of sample in FaSSIF (pH of media 6.5), 24 h
[9] = pH of sample in FeSSIF (pH of media 5.0), 0.5 h
[10] = pH of sample in FeSSIF (pH of media 5.0), 2 h
[11] = pH of sample in FeSSIF (pH of media 5.0), 24 h
[12] = pH of sample in SGF (pH of media 1.2), 0.5 h
[13] = pH of sample in SGF (pH of media 1.2), 2 h
[14] = pH of sample in SGF (pH of media 1.2), 24 h
[15] = pH of sample in Water (pH of media 7.9), 0.5 h
[16] = pH of sample in Water (pH of media 7.9), 2 h
[17] = pH of sample in Water (pH of media 7.9), 24 h

| SMILES | Solubility [1, 4] | Solubility ([1]; FaSSIF (pH of media 6.5), 2 h) | Solubility [1, 5] | Solubility ([1]; FeSSIF (pH of media 5.0), 2 h) | Solubility ([1]; FeSSIF (pH of media 5.0), 24 h) | Solubility ([1]; SGF (pH of media 1.2), 0.5 h) | Solubility ([1]; SGF (pH of media 1.2), 2 h) | Solubility ([1]; SGF (pH of media 1.2), 24 h) | pH [1, 6] | pH [1, 7] | pH [1, 8] | pH [1, 9] | pH [1, 10] | pH [1, 11] | pH [1, 12] | pH [1, 13] | pH [1, 14] | pH [1, 15] | pH [1, 16] | pH [1, 17] | also measured |
| --- | --- | --- | --- | --- | --- | --- | --- | --- | --- | --- | --- | --- | --- | --- | --- | --- | --- | --- | --- | --- | --- |
| NCc1ccc(C(=O)Nc2ccncc2F)cc1-c1cccc(C(=O)Nc2ccc(SC[C@H]3CCOC3=O)cc2)c1 (stereo in doubt) [HCl salt Form I] | 23 µg/mL | 5 µg/mL | 83 µg/mL | 91 µg/mL | 66 µg/mL | 780 µg/mL | 841 µg/mL | 1355 µg/mL | 6.4 | 6.4 | 6.4 | 4.9 | 4.9 | 4.9 | 1.4 | 1.4 | 1.4 | 5.6 | 5.7 | 5.8 | Solubility (mg/mL) ([1]; FaSSIF (pH of media 6.5), 24 h): <LOD; Solubility ([1]; Water (pH of media 7.9), 0.5 h): 680 µg/mL; Solubility ([1]; Water (pH of media 7.9), 2 h): 771 µg/mL; Solubility ([1]; Water (pH of media 7.9), 24 h): 1411 µg/mL |
| NCc1ccc(C(=O)Nc2ccncc2F)cc1-c1cccc(C(=O)Nc2ccc(SCC3CCOC3=O)cc2)c1 (stereo not drawn) [Compound A, 4-(aminomethyl)-N-(3-fluoropyridin-4-yl)-3-{3-[(4-{[(2-oxooxolan-3-yl)methyl]sulfanyl}phenyl)carbamoyl]phenyl}benzamide] |  |  |  |  |  |  |  |  |  |  |  |  |  |  |  |  |  |  |  |  | Stability (in words) ([2]; chemical stability of solid forms, comparison): low chemical stability; Anti-fibrotic therapeutic effects [3]: strong anti-fibrotic therapeutic effects |
| NCc1ccc(C(=O)Nc2ccncc2F)cc1-c1cccc(C(=O)Nc2ccc(SC[C@H]3CCOC3=O)cc2)c1 [Freebase Form I] | 14 µg/mL (≈ 24.5 µM) | 6 µg/mL (≈ 10.5 µM) | 183 µg/mL (≈ 321 µM) | 126 µg/mL (≈ 221 µM) | 59 µg/mL (≈ 103 µM) | ~5000 µg/mL (≈ 8760 µM) | ~5000 µg/mL (≈ 8760 µM) | ~5000 µg/mL (≈ 8760 µM) | 6.4 | 6.4 | 6.5 | 5.0 | 5.0 | 5.0 | 1.2 | 1.4 | 1.4 | 7.9 | 7.6 | 8.7 | Purity (area %) ([2]; Day 0, HPLC): 96.89 area %; Decrease in purity versus Day 0 ([2]; Day 7, 40° C./75% RH (open)): 3.0 area %; XRPD (crystal form) ([2]; Day 7, 40° C./75% RH (open)): No change; Purity (area %) ([2]; Day 7, 40° C./75% RH (open), HPLC): 93.87 area %; Decrease in purity versus Day 0 ([2]; Day 7, 60° C./capped): 1.9 area %; XRPD (crystal form) ([2]; Day 7, 60° C./capped): No change; Purity (area %) ([2]; Day 7, 60° C./capped, HPLC): 95.01 area %; Solubility ([1]; FaSSIF (pH of media 6.5), 24 h): 1 µg/mL (≈ 1.75 µM); Solubility (mg/mL) ([1]; Water (pH of media 7.9), 0.5 h): <LOD; Solubility (mg/mL) ([1]; Water (pH of media 7.9), 2 h): <LOD; Solubility (mg/mL) ([1]; Water (pH of media 7.9), 24 h): <LOD |
